Results published in patent US12023308B2, “Agents for reversing toxic proteinopathies” (THE BROAD INSTITUTE, INC., priority 2019, dated 2024).
Where two headings read alike, the source gives them in different places.

Key:
P cells [1] = assay: THP-induced apoptosis (caspase 3/7) in N and P cells; assay type: cell-based, human; settings: P cells compared to N cells, 72 hour
Procedure: To study apoptosis and cell death in N and P cells, 384 well Cell Carrier Ultra plates (6057308, Perkin Elmer), pre-coated with 0.25 mg/mL Synthemax II SC Substrate (3535, Corning) were used. […] CellEvent Caspase-3/7 Green Detection Reagent (C10423, Thermo Fisher Scientific®) and DRAQ7 (DR71000, Biostatus) were used at 1:5000 to monitor apoptosis and cell death respectively. Cells were imaged daily during 4 days to monitor viability and image analysis was performed as described below. For rescue experiments, P cells were plated on 96 well Cell Carrier Ultra microplates (6055302, Perkin Elmer) at 30,000 cells/well and cultured for 24 hr. […]
Caspase 3/7 activation and/or DRAQ7 staining were used to calculate the fraction of cells going through apoptosis and/or cell death, respectively. Single cells were first identified using the digital phase contrast channel and cell number was calculated. Fluorescence intensities were then measured and the threshold for Caspase 3/7 and DRAQ7 positive staining was determined. As an output, the fraction of live (neither caspase3/7 nor DRAQ7 signal detected), apoptotic (caspase3/7 positive) or dead cells (DRAQ7 positive) was calculated in each well at a particular time point.
Cell viability was determined using caspase activation as described above.

P cells [2] = assay: P cell viability upon THP treatment (live imaging, rescue); assay type: cell-based, human; settings: Homo sapiens; DMSO pre-treatment, 5 days THP
Procedure: To study apoptosis and cell death in N and P cells, 384 well Cell Carrier Ultra plates (6057308, Perkin Elmer), pre-coated with 0.25 mg/mL Synthemax II SC Substrate (3535, Corning) were used. […] CellEvent Caspase-3/7 Green Detection Reagent (C10423, Thermo Fisher Scientific®) and DRAQ7 (DR71000, Biostatus) were used at 1:5000 to monitor apoptosis and cell death respectively. Cells were imaged daily during 4 days to monitor viability and image analysis was performed as described below. For rescue experiments, P cells were plated on 96 well Cell Carrier Ultra microplates (6055302, Perkin Elmer) at 30,000 cells/well and cultured for 24 hr. BRD-4780 (5 μM) was applied as a pretreatment for 48 hr prior to thapsigargin exposure and throughout the experiment. Thapsigargin was applied at increasing doses and the plates were imaged daily thereafter.
For the measurement of P cell rescue from THP-induced cell death by BRD-4780 (FIGS. 3I and 3J), no dyes were added to avoid any influence on cell growth. Digital phase contrast images were used for cell identification and count, and autofluorescence in the far-red channel was used for detection of dead cells. Cells with no autofluorescence were identified and calculated as live cell.
P cells were seeded 12 hr prior to profiling compound treatment at a density of 12,000 cells/well in 384 well Cell Carrier Ultra plates (6057308, Perkin Elmer), pre-coated with 0.25 mg/mL Synthemax II SC Substrate (3535, Corning). After 24 hr, CellEvent Caspase-3/7 Green Detection Reagent (C10423, Thermo Fisher Scientific®) and DRAQ7 (DR71000, Biostatus) were added at 1:5000 final dilution in the presence or absence of thapsigargin (100 nM). Cells were imaged daily during 7 days to monitor viability. Image acquisition and analysis was done as described above and viability was assessed as fraction of live cells at day 5 of thapsigargin treatment, and at the day 6 for DMSO.

MUC1-fs [3] = assay: Immunoblot analysis of MUC1-fs in P cells under pathway perturbations; assay type: cell-based, human; settings: for effect on BRD-4780-mediated MUC1-fs clearance (immunoblot): with BRD-4780 (5 μM)
Description: Cells were lysed in lysing buffer solution (9803, Cell Signaling Technology) containing protease inhibitors (05892791001, Roche) and phosphatase inhibitors (04906837001, Roche). […] To normalize protein concentration, proteins in the supernatant of cells or of kidney lysates were quantified using the Pierce BCA Protein Assay Kit (23225, Thermo Fisher Scientific®). Normalized protein lysates were then mixed with NuPAGE LDS sample buffer (NP0008, Thermo Scientific) and NuPAGE reducing agent (NP0004, Thermo Scientific) and heated to 75° C. for 10 min prior to SDS-PAGE gel electrophoresis using NuPAGE Tris-Acetate SDS Running Buffer (LA0041, Thermo Scientific) or NuPAGE MES SDS running buffer (NP0002, Thermo Fisher Scientific®) depending on protein molecular weight of interest. Electrophoretically separated proteins were transferred to a nitrocellulose membrane (1704158, BioRad) using Trans-Blot® Turbo™ Blotting System (1704155, BioRad) following manufacturer's protocol. Membranes were blocked in 5% Nonfat Dry Milk (9999S, Cell Signaling Technology) in PBS with 0.1% Tween® 20 (PBS-T), and probed with primary antibody overnight at 4° C. Following three washes with PBS-T, the membranes were incubated with secondary antibody for 1 hr at room temperature, washed three more times in PBS-T, and incubated with Super Signal West Dura (34076, Thermo Fisher Scientific®) or Super Signal West Pico (34087, Thermo Fisher Scientific®) and immunoreactive bands were imaged by G:BOX Chemi XT4 (G:BOX-CHEMI-XT4, Syngene).
Detection of MUC1-fs in P cells at baseline and following secretory pathway perturbations was performed using immunoblot and IF analyses. For immunoblot experiments (FIGS. 5E and 13D), P cells were grown in 6-well plates to high confluence. For IF experiments (FIGS. 5B-5D and 13A-13C), P cells were plated in 384-well plates at 12,000 cells/well. Following 24 hr, cells were treated with 5 μM BRD-4780 or DMSO alone, or in combination with 100 nM Bafilomycin A (B1793, Sigma-Aldrich), or 200 ng/mL Brefeldin A (B7651, Sigma-Aldrich) for a maximum period of 24 hr as indicated. For TMED9 or Nischarin depletion experiments, transduced/transfected P cells were plated either in 96-well plates at 60,000 cells/well for IF (FIGS. 6C, 6D and 14B), or grown in 6-well plates to high confluence for immunoblot detection (FIGS. 6B and 14C). Cells were then treated with 5 μM BRD-4780 or DMSO for 24 hr (for IF detection) or 72 hr (for immunoblot analysis) and were processed accordingly.

MUC1-fs [4] = assay: MUC1-fs subcellular distribution (co-localization IF) in P cells; assay type: cell-based, human
PERK = assay: Immunoblot of eIF2a phosphorylation in P cells; assay type: cell-based, human
Procedure: (§1) Cells were lysed in lysing buffer solution (9803, Cell Signaling Technology) containing protease inhibitors (05892791001, Roche) and phosphatase inhibitors (04906837001, Roche). Mouse kidney tissues were lysed by tissue homogenizer (Tissue-Tearo™, BioSpec Products) in lysing buffer solution containing inhibitors as above, followed by 20 min rocking at 4° C. and centrifugation at 16,000 g, 4° C. for 5 min. To normalize protein concentration, proteins in the supernatant of cells or of kidney lysates were quantified using the Pierce BCA Protein Assay Kit (23225, Thermo Fisher Scientific®). Normalized protein lysates were then mixed with NuPAGE LDS sample buffer (NP0008, Thermo Scientific) and NuPAGE reducing agent (NP0004, Thermo Scientific) and heated to 75° C. for 10 min prior to SDS-PAGE gel electrophoresis using NuPAGE Tris-Acetate SDS Running Buffer (LA0041, Thermo Scientific) or NuPAGE MES SDS running buffer (NP0002, Thermo Fisher Scientific®) depending on protein molecular weight of interest. Electrophoretically separated proteins were transferred to a nitrocellulose membrane (1704158, BioRad) using Trans-Blot® Turbo™ Blotting System (1704155, BioRad) following manufacturer's protocol. Membranes were blocked in 5% Nonfat Dry Milk (9999S, Cell Signaling Technology) in PBS with 0.1% Tween® 20 (PBS-T), and probed with primary antibody overnight at 4° C. […]

IRE = assay: RT-PCR analysis of XBP1 splicing in THP-treated P cells; assay type: cell-based, human; settings: P cells treated with THP (100 nM)
Procedure: XBP1 splicing was analyzed by standard RT-PCR. Briefly, RNA was isolated from patient cells using a RNeasy Mini Kit (74106, Qiagen). One μg of RNA was converted to cDNA using the SuperScript First-Strand Synthesis system for RT-PCR (11904-018, Invitrogen). The primer sequences used are as follows: Human XBP1 Forward Primer: 5′ TTACGAGAGAAAACTCATGGCC 3′ (SEQ ID NO: 12). Human XBP1 Reverse Primer: 5′ GGGTCCAAGTTGTCCAGAATGC 3′ (SEQ ID NO: 13). PCR was carried out on 3 μL of the resulting cDNA solution using the OneTaq Hot Start Master Mix (M0484S, NEB). Five μL of PCR product was run on a 2% agarose gel for 90 min at 150 V.

MUC1-fs [5] = assay: MUC1-fs immunofluorescence high-content imaging assay in P cells; assay type: cell-based, human
Procedure: Cells grown on CellCarrier-96 or -384 well Ultra microplates (PerkinElmer) were fixed 10 min in PBS containing 4% PFA (Electron Microscopy Sciences), permeabilized 15 min in 0.5% Triton X100 (X100-100ML, Sigma-Aldrich), blocked for 1 hr in blocking reagent (100 mM Tris HCL pH8; 150 mM NaCL; 5 g/L Blocking Reagent [11096176001, Roche]) and treated for 1 hr with primary antibodies diluted in blocking reagent (1:500, monoclonal Fab-A-VSH anti-fsMUC1, AbD22655.2, Bio-Rad; 1:2000, monoclonal Mouse anti-MUC1 (CD227), 60137, Stemcell Technologies; 1:200, polyclonal, Mouse anti-GM130, ab169276, Abcam; 1:100, polyclonal, Rabbit anti-TMED9, 216201-AP, Proteintech; 1:800, polyclonal, Rabbit anti-SEC31A, 17913-1-AP, Proteintech; 1:400, monoclonal, Rabbit anti-EEA1 (C45B10), 3288S, Cell signaling technology; 1:100, polyclonal, Rabbit anti-ERGIC-53, E1031, Sigma-Aldrich; 1:400, monoclonal, Mouse anti-LAMP1 (D401S), 15665, Cell signaling technology; 1:1000, polyclonal, Rabbit anti-Calnexin, ab22595, Abcam; 1:2000, monoclonal, Rabbit anti-GM130 (D6B1) XP, 12480, Cell signaling technology; 1:200, monoclonal, Rabbit anti TNG46, ab50595, Abcam; 1:100, monoclonal, Rabbit anti-Rab7 (D95F2) XP, 9367, Cell signaling technology; 1:100, monoclonal, Rabbit anti-Rab11 (D4F5) XP, 5589, Cell signaling technology). Fixed, stained cells were washed three times in PBS and incubated for 1 hr with secondary antibodies in blocking solution (1:500, Alexa Fluor 488® Goat anti-Mouse IgG, A-11029, Thermo Fisher Scientific®; 1:500, Alexa Fluor 647® F(ab′)2-Goat anti-Rabbit IgG, A21246, Thermo Fisher Scientific®; 1:2000, Hoechst 33342, H3570, Thermo Fisher Scientific®), then washed three times in PBS and imaged.
Cell nuclei were first identified using Hoechst staining, and cell number was calculated. Cytoplasmic regions were then detected around each nucleus based on combined channels. The cells from the edge of the field were eliminated from the analysis. For the quantification of protein abundance, the total signal intensity value for each antibody was calculated separately in the cell cytoplasm and the average signal per cell was calculated for each well.
P cells were seeded 24 hr prior to compound treatment at a density of 12,000 cells/well in 384 well Cell Carrier Ultra plates (6057308, Perkin Elmer), pre-coated with 0.25 mg/mL Synthemax II SC Substrate (3535, Corning). Compounds of the repurposing library set (Corsello et al., 2017) were used at 5 doses (35, 3.5, 0.35, 0.035 and 0.0035 μM) for the primary screen and 10 doses (16, 5.6, 1.8, 0.6, 0.21, 0.07, 0.02, 0.008, 0.002 and 0.0008 μM) for the following screens. The compounds, in two replicates, were transferred from compound source plates to the cell plates using the HighRes Pin Tool. […] After 48 hr incubation, cells were fixed for 20 min in 4% PFA (Electron Microscopy Sciences) in PBS, washed twice, then permeabilized (10 min) with 0.5% Triton-X100 (X100-100ML, Sigma-Aldrich) in PBS and washed once more. Cells were blocked for 10 min at RT with Blocking solution (100 mM Tris HCL pH8; 150 mM NaCL; 5 g/L Blocking Reagent [11096176001, Roche]), then incubated 90 min at RT with one of the following primary antibodies in Roche Blocking solution: 1:500, monoclonal Fab-A-VSH anti-MUC1-fs, AbD22655.2, Bio-Rad; 1:2000, monoclonal mouse anti-MUC1 (214D4), 05-652-KC, Millipore; 1:1000, monoclonal, Rabbit anti-GM130 (D6B1) XP, 12480, Cell signaling technology. […]

[6] = Dose response exposure PK study in male 129-ELITE mice; assay type: in vivo, mouse; settings: single p.o. doses
Procedure: 4) A pharmacokinetic study was performed by Charles River Labs (CRL) (Worcester, Mass., USA) in fed male 129-ELITE mice (study EF-0024-DA-MI) to determine the dose response exposure of BRD-4780, BRD-1365 and BRD-7709 in plasma, kidney, liver and eye. Brain exposure to BRD-4780 at 30 mg/kg was also evaluated A single dose of BRD-4780 was administered at 30.0 mg/kg or 100 mg/kg orally (p.o) in a clear solution of 5% dextrose in water (D5W). For BRD-1365 and BRD-7709, a single dose of either compound was administered at 10.0 mg/kg, 30.0 mg/kg, 50.0 mg/kg or 100 mg/kg orally (p.o) in a clear solution of 5% dextrose in water (D5W). Blood, kidney, liver and eye tissue were collected from n=3 mice per dose group at six time points post p.o. dose administration (1, 2, 6, 10, 16 and 24 hours) with all three compounds. Brain tissue was collected from n=3 mice per dose group at six time points post p.o. dose administration (1, 2, 6, 10, 16 and 24 hours) with BRD-4780 at 30 mg/kg. Plasma obtained by centrifugation and tissue fragments were homogenized. Plasma and tissue drug concentration was determined by LC-MS/MS and reported as drug concentration in ng/mL for plasma and ng/mg for kidney, liver and eye tissue, plotted as the mean±standard deviation concentration for males for BRD-4780 ([…]), BRD-1365 (FIG. 11K) and BRD-7709 (FIG. 11M). Standard pharmacokinetic parameters were calculated for males for BRD-4780 ([…]), BRD-1365 (FIG. 11O) and BRD-7709 (FIG. 11P).

ATF6 = assay: Immunoblot of BiP in THP-treated P cells; assay type: cell-based, human; settings: P cells treated with THP (100 nM)
Procedure: as §1

total MUC1 mRNA = assay: MUC1 transcription assay (RT-PCR profiling screen) in P cells; assay type: cell-based, human; settings: preliminary in vitro experiments in P cells
Procedure: qPCR was performed using a previously described protocol (Bittker, 2012). P cells seeded at 2000 cells/well in 384-well, clear bottom, white wall plates were grown for 24 hr, then treated with profiling compounds transferred by pinning to duplicate plates. JQ1 (250 nM) and DMSO were used for controls as above. After 24 hr, cells were washed and cDNAs were made using ABI Cells-to-Ct kit (Thermo Fisher Scientific®, Waltham, Mass.). MUC1 and HMBS delta Cp values were determined using a Roche LightCycler 480 Instrument and TaqMan probes for MUC1 FAM (4351368 assay ID Hs00159357_m1) and HMBS VIC (4448486-assay ID Hs00609297_m1) (Thermo Fisher Scientific®, Waltham, Mass.), in 5 μL reactions. The fold change effect of the compounds on total MUC1 mRNA was normalized to JQ1 and DMSO controls, as described above.

C/C=C(/C)C(=O)O[C@H]1C(C)=C2[C@H]([C@@H]1OC(=O)CCCCCCC)[C@@](C)(OC(C)=O)C[C@H](OC(=O)CCC)[C@@]1(O)[C@H]2OC(=O)[C@@]1(C)O [THP, thapsigargin, reference compound]
susceptibility of P cells to THP-induced apoptosis (P cells [1]): higher susceptibility to apoptosis compared to N cells | EC50 (P cells [2]): 17 nM

C[C@H]1CCC/C=C/[C@@H]2C[C@H](O)C[C@H]2[C@H](O)/C=C/C(=O)O1 [BFA, Brefeldin A]
effect on BRD-4780-mediated MUC1-fs clearance (immunoblot) (MUC1-fs [3]): abrogated the effect of BRD-4780 on MUC1-fs clearance | MUC1-fs subcellular distribution (MUC1-fs [4]): MUC1-fs accumulation in the ER

Cc1cccc(CC(=O)N2CCc3c2ccc(-c2cn(C)c4ncnc(N)c24)c3F)n1 [GSK2656157]
PERK activation (eIF2a phosphorylation) (PERK): dose-dependent reduction of eIF2a phosphorylation

Cc1cc(=O)oc2c(C=O)c(O)ccc12 [Compound 4μ8c]
IRE activation (XBP1 splicing) (IRE): dose-dependent inhibition of XBP1 splicing

CC(C)[C@@H]1[C@H]2CC[C@H](C2)[C@H]1N (single isomer, unassigned) [BRD-7709]
FS MUC1 cytoplasm EMax (MUC1-fs [5]; high-content imaging assay): −39% | IC50 (MUC1-fs [5]; high-content imaging assay; read-out: FS MUC1 cytoplasm IC50): 660 nM | dose proportionality of AUC exposures [6]: nearly dose proportional

CC(C)[C@H]1[C@@H]2CC[C@@H](C2)[C@@H]1N (single isomer, unassigned) [BRD-1365]
FS MUC1 cytoplasm EMax (MUC1-fs [5]; high-content imaging assay): −39% | IC50 (MUC1-fs [5]; read-out: FS MUC1 cytoplasm IC50; high-content imaging assay): 730 nM | dose proportionality of AUC exposures [6]: not dose proportional

CO/C1=C\C(C)=C\[C@@H](C)[C@@H](O)[C@@H](C)C/C(C)=C/C=C/[C@H](OC)[C@@H]([C@@H](C)[C@@H](O)[C@H](C)[C@@]2(O)C[C@@H](O)[C@H](C)[C@@H](C(C)C)O2)OC1=O [Bafilomycin A]
effect on BRD-4780-mediated MUC1-fs clearance (immunoblot) (MUC1-fs [3]): prevented BRD-4780 from clearing mutant MUC1-fs | MUC1-fs subcellular distribution (MUC1-fs [4]): accumulation of MUC1-fs in the late secretory pathway

PF-429242
MUC1-fs abundance (immunoblot) (MUC1-fs [3]; 10 μM, 24 hours): MUC1-fs accumulation | ATF6 activation (BiP abundance) (ATF6): dose-dependent reduction of BiP abundance

Cc1sc2c(c1C)C(c1ccc(Cl)cc1)=N[C@@H](CC(=O)OC(C)(C)C)c1nnc(C)n1-2 [JQ1, reference compound]
transcriptional suppression of both MUC1-fs and MUC1-wt (total MUC1 mRNA): 100%

CC(C)C[C@H](NC(=O)[C@H](Cc1ccccc1)NC(=O)c1cnccn1)B(O)O [Bortezomib]
effect on BRD-4780-mediated MUC1-fs clearance (immunoblot) (MUC1-fs [3]): did not affect MUC1-fs removal by BRD-4780
